Data on two molecules can be found in patent publication US6514761B1, “Methods of using BCL-2 for the therapeutic treatment and prevention of diseases” (The Burnham Institute, priority 1993, dated 2003).

For experiment [1], the system named is in vitro self-assembled nuclei. The experiment can be described thus: Cell-free apoptosis assay: nuclei assembled in Xenopus egg extracts with sperm chromatin. On the set-up: species or system Xenopus laevis. Here is the method:
A cell-free assay for assessing Bcl-2 function was developed to rapidly screen compounds for ability to inhibit or enhance Bcl-2 protein function. The assay utilizes in vitro self-assembled nuclei generated by mixing cell extracts derived from Xenopus laevis eggs with isolated sperm chromatin. The nuclei assemble normally but, after about 2 hours, begin to disintegrate. The nuclei appeared contracted and had the same appearance as isolated nuclei that had been treated briefly with an endonuclease. This phenomenon appears to represent apoptosis. Alternatively, isolated hepatocyte nuclei can be substituted for sperm chromatin and mixed with the egg extracts, resulting in the same phenomenon.
To test the effect of Bcl-2 protein on nuclei, lysates were prepared from Sf9 insect cells infected with recombinant baculoviruses encoding either Bcl-2 or an irrelevant protein such as β-galactosidase (β-gal) or the Lck kinase (see Reed et al., Anal. Biochem. 205:70-76 (1992). To confirm that Bcl-2 was expressed in the insect cell lysates, Sf9 insect cells were infected with recombinant Bcl-2 baculovirus or recombinant Lck baculovirus vectors. Infected cells were incubated for three days to allow expression of the gene products, then lysates were obtained and fractionated by SDS-PAGE electrophoresis. Following electrophoresis, proteins were transferred to membrane and probed with an antiserum raised against a synthetic peptide corresponding to part of the predicted amino acid sequence of human Bcl-2. […] Bcl-2 protein comprised about 5-10% of the total extracted protein.
Sf9 cell lysates were added at a 1:90 dilution into the Xenopus extracts or to a final protein concentration of 10 μg/ml (see Newmeyer and Wilson, Meth. Cell Biol. 36:607-634 (1991), which is incorporated herein by reference). […] After about another 40 min of incubation, the nuclei had disintegrated completely (FIG. 9B) and a generally dispersed filamentous background of Hoechst fluorescence remained along with many small spherical or irregularly shaped aggregates of chromatin (not shown). […]

Experiment [2] relates to 32D-3 cells. The experiment can be described thus: Viability of stably transfected 32D-3 cells in culture (trypan blue exclusion). It is filed as cell-based. As to conditions: cells expressing the protein, followed over days in culture, versus Neo control. An excerpt: FIG. 2A. Cell viability as determined by trypan blue exclusion (mean +/− standard deviation of 3 determinations). W.T., wild-type Bcl-2; P59S, mutant Bcl-2; Neo, control.
32D-3 cells were stably transfected with expression plasmids containing a G418 antibiotic resistance gene and either a wild-type or mutant human Bcl-2 DNA sequence. The mutant Bcl-2 sequence encodes a variant Bcl-2 protein having a serine substitution for a proline at amino acid position 59 (BCL2/P59S). This amino acid substitution results in a high level of constitutive expression of BCL2/P59S.
Following selection of the cells for G418 resistance, cells were plated and their viability was determined.

Experiment [3] concerns AT-3 cells. Put plainly: Sindbis virus-induced death of AT-3 prostate cancer cells (trypan blue exclusion). It is filed as cell-based, rat. The settings on record: AT-3 cells infected with pZIP-BCL2, grown with Sindbis virus. An excerpt: FIG. 3. Bcl-2 blocks prostate cancer cell line, AT-3, death induced by Sindbis virus infection. Cell viability as determine by trypan blue exclusion (mean +/− standard deviation of 3 determinations). pZIP-BCL2 or pZIP-NEO are described in FIG. 1B. AT-3-NEO control cells (circles); AT-3-BCL2 cells (squares). Virus infected cells (solid symbols); cells cultured in the absence of virus (open symbols).
A rat prostate cancer cell line, AT-3, was infected with pZIP-BCL2 or pZIP-NEO (see FIG. 1B), then grown in the presence or absence of Sindbis virus. At various times after the addition of Sindbis virus, cells were collected and cell viability was determine using trypan blue exclusion.

The subject of experiment [4] is PC12 cells. Put plainly: Glutamate-induced death of PC12 cells (MTT dye reduction assay). It is filed as cell-based, rat. The settings on record: PC12 cells infected with pZIP-BCL-2; 30 mM glutamate, 24 hours. Here is the method:
FIG. 4. Protection of PC12 cells from glutamate-induced death by Bcl-2. Cell viability as determined by MTT dye reduction assay (mean +/− standard deviation of 3 determinations).
The rat pheochromocytoma cell line, PC12, was stably infected with pZIP-BCL-2 or pZIP-NEO (see FIG. 1B), then treated with 30 mM glutamate for 24 hours. Following treatment, cell viability was assessed by MTT dye reduction assay as described in Tada et al., J. Immunol. Meth. 93:157-165 (1986).

The test system of experiment [5] is 32D-3 cells. Put plainly: Survival of transfected 32D-3 cells cultured without growth factor. It is filed as cell-based. The settings on record: 32D-3 cells expressing the protein, growth factor deprivation. The text has this:
FIGS. 5A and 5B. Homologs of Bcl-2 prolong survival of 32D-3 cells grown in the absence of Il-3 for various times. Cell viability as determined by the trypan blue exclusion (mean +/− standard deviation of 3 determinations).
FIGS. 6A to 6C. Bcl-2 acts synergistically with Raf-1 to prolong cell survival under conditions of growth factor deprivation. Bcl-2 protein, alone (open circles); activated Raf-1 protein, alone (squares); Bcl-2+Raf-1 proteins (closed circles); no Bcl-2 or Raf-1 protein (triangles).
FIG. 7. A dominant-negative form of the Bcl-2 protein, Bcl-2β, accelerates cell death. Cell viability as determined by trypan blue exclusion. […]
32D-3 cells were stably transfected with expression plasmids containing either a hygromyin (HYG) or a G418 (NEO) antibiotic resistance gene and cDNA encoding either the human Bcl-2 protein, the chicken Bcl-2 protein or the BHRF-1 protein from Epstein Barr Virus (viral homolog of Bcl-2). […] Following transfection, cells were cultured without growth factor for various times and the number of viable cells was determined.
32D-3 cells were stably transfected with expression plasmids producing Bcl-2 protein, activated Raf-1 protein or both Bcl-2 and Raf-1, then cultured under conditions of growth factor deprivation that cause apoptosis. At various times after removing the growth factor from the medium, cells were collected and viability was determined. […]

Turning to “Bcl-2: about 26 kDa protein that promotes cell survival by blocking apoptosis; expressed by gene transfer or added as Sf9 lysate”, in experiment [1] (after 2 hours of incubation, Bcl-2-containing Sf9 lysate added to Xenopus extract), the “intact, transport-competent nuclei” value is “about 50%”. Also, the “nuclei remaining intact and transport-competent” value in experiment [1] (after two hours and forty min incubation, Bcl-2-containing Sf9 lysate) was 42%. Moreover, the “amount of fluorescent transport substrate imported by nuclei” value in experiment [1] (in one hour, Bcl-2-containing lysate) is listed as “no gross changes”. In experiment [2], the “number of viable cells in culture” value was “did not decrease during the time examined”. Moreover, the “protection from Sindbis virus-induced cell death” value in experiment [3] was “protected from Sindbis virus-induced death”. Besides, the “protection from glutamate-induced cell death” value in experiment [4] is listed as “protected the PC12 cells from glutamate-induced death”. For the same molecule, in experiment [5], the “cell viability / survival without growth factor” value was “modest effect”.

B1: chicken Bcl-2: chicken Bcl-2 homolog expressed from cDNA in 32D-3 cells (protein, UniProt Q00709 1-233, looked up)
Apoptosis regulator Bcl-2: MAHPGRRGYDNREIVLKYIHYKLSQRGYDWAAGEDRPPVPPAPAPAAAPAAVAAAGASSHHRPEPPGSAAASEVPPAEGLRPAPPGVHLALRQAGDEFSRRYQRDFAQMSGQLHLTPFTAHGRFVAVVEELFRDGVNWGRIVAFFEFGGVMCVESVNREMSPLVDNIATWMTEYLNRHLHNWIQDNGGWDAFVELYGNSMRPLFDFSWISLKTILSLVLVGACITLGAYLGHK
For B1, in experiment [5], the “cell viability / survival without growth factor” value is given as “nearly as effective as the human Bcl-2”.
